Data on 2 compounds can be found in ChEMBL document CHEMBL5096228, “Targeting Vancomycin-Resistant Enterococci (VRE) Infections and Van Operon-Mediated Drug Resistance Using Dimeric Cholic Acid-Peptide Conjugates” (J Med Chem, 2022).

Molecules are shown by their SMILES. pIC50: −log10 of the molar value. Values after ≈ are worked out from the molar mass of the structure shown. Active and inactive are the calls of the source. No cut-off for these calls is given here.

Series [1] deals with Enterococcus faecium. Briefly: Inhibition of vancomycin-resistance in Enterococcus faecium ATCC 51559 assessed as increase in vanZ expression at 2 ug/ml measured after 1 hr by qRT-PCR analysis. In kind it is functional. Conditions: dose 2.0 µg/ml.
For series [2], the system named is Staphylococcus aureus. Kind of series: Antimicrobial activity against Staphylococcus aureus ATCC 25923 assessed as growth inhibition after 14 to 16 hrs by CLSI based broth dilution method. Conditions: time 14-16 hrs. It counts as functional.
The subject of series [3] is Enterococcus faecium. Briefly: Inhibition of vancomycin-resistance in Enterococcus faecium ATCC 51559 assessed as reduction in vanA expression at 2 ug/ml incubated for 1 hr measured after 7 days in presence of vancomycin by qRT-PCR analysis. In kind it is functional. Conditions: dose 2.0 µg/ml. On the technique in general: Quantitative PCR measures a nucleic acid by following its amplification.

Series [4] concerns Enterococcus faecium. Briefly: Resistance development in vancomycin-resistance Enterococcus faecium ATCC 51559 assessed as decrease CFU measured in presence of vancomycin. It counts as functional, organism-based.
The test system of series [5] is Enterococcus faecium. Briefly: Inhibition of vancomycin-resistance in Enterococcus faecium ATCC 51559 assessed as increase in vanA expression at 2 ug/ml measured after 1 hr by qRT-PCR analysis. It counts as functional. Conditions: dose 2.0 µg/ml.
Series [6] has as its system Enterococcus faecium. Briefly: Bactericidal activity against Vancomycin-resistant Enterococcus faecium ATCC 51559 assessed as inhibition of bacterial growth at 4 to 16 ug/ml measured upto 24 hrs by time-kill assay. It counts as functional, organism-based. Conditions: dose 4-16 µg/ml.
In series [7] the test system is Enterococcus faecium. Briefly: Inhibition of vancomycin-resistance in Enterococcus faecium ATCC 51559 assessed as increase in vanY expression at 2 ug/ml measured after 1 hr by qRT-PCR analysis. In kind it is functional. Conditions: dose 2.0 µg/ml.
The subject of series [8] is Staphylococcus aureus. Kind of series: Antimicrobial activity against methicillin-resistant Staphylococcus aureus ATCC 33591 assessed as growth inhibition after 14 to 16 hrs by CLSI based broth dilution method. Conditions: time 14-16 hrs. In kind it is functional.
Series [9] has as its system Enterococcus faecium. Kind of series: Inhibition of vancomycin-resistance in Enterococcus faecium ATCC 51559 assessed as increase in vanS expression at 2 ug/ml measured after 1 hr by qRT-PCR analysis. It counts as functional. Conditions: dose 2.0 µg/ml.
Series [10] deals with Enterococcus faecium. Briefly: Inhibition of vancomycin-resistance in Enterococcus faecium ATCC 51559 assessed as reduction in vanS expression at 2 ug/ml measured after 1 hr in presence of vancomycin by qRT-PCR analysis. It counts as functional. Conditions: dose 2.0 µg/ml.
For series [11], the system named is Enterococcus faecium. Briefly: Inhibition of vancomycin-resistance in Enterococcus faecium ATCC 51559 assessed as increase in vanH expression at 2 ug/ml measured after 1 hr by qRT-PCR analysis. Conditions: dose 2.0 µg/ml. In kind it is functional.
Series [12] has as its system Mus musculus. Briefly: Antimicrobial activity against Vancomycin-resistant Enterococcus faecium ATCC 51559 induced wound in BALB/c mouse assessed as log reduction in colony forming unit at 40 mg/kg administered topically 3 times daily for 3 days. It counts as functional. Conditions: route top, time 3 day.
Series [13] concerns Enterococcus faecium. Briefly: Membrane permeabilization in Enterococcus faecium ATCC 51559 at 16 ug/ml measured after 1 hr by PI staining based flow cytometry analysis. Conditions: dose 16 µg/ml. It counts as functional. (Flow cytometry measures light scatter and fluorescence of single cells or particles in a stream.)
Series [14] deals with Enterococcus faecium. Kind of series: Antibiofilm activity against Vancomycin-resistant Enterococcus faecium ATCC 51559 assessed as log reduction in colony forming unit at 16 ug/ml by SYTO9 and PI staining based fluorescence assay. In kind it is functional, organism-based. Conditions: dose 16.0 µg/ml, time 1-6 hrs, TDE = time-dependent effect.
Series [15] relates to Cell membrane. Kind of series: Disruption of membrane in Enterococcus faecium ATCC 51559 at 4 ug/ml by SYTO9/PI staining based fluorometric analysis. Conditions: dose 4.0 µg/ml, time 1-6 hrs, TDE = time-dependent effect.
For series [16], the system named is Enterococcus faecium. Briefly: Inhibition of vancomycin-resistance in Enterococcus faecium ATCC 51559 assessed as reduction in vanH expression at 2 ug/ml incubated for 1 hr measured after 7 days in presence of vancomycin by qRT-PCR analysis. In kind it is functional. Conditions: dose 2.0 µg/ml.
The test system of series [17] is Enterococcus faecium. Kind of series: Inhibition of vancomycin-resistance in Enterococcus faecium ATCC 51559 assessed as increase in vanR expression at 2 ug/ml measured after 1 hr by qRT-PCR analysis. In kind it is functional. Conditions: dose 2.0 µg/ml.
Series [18] has as its system Enterococcus faecium. Briefly: Antibiofilm activity against Vancomycin-resistant Enterococcus faecium ATCC 51559 assessed as log reduction in colony forming unit at 16 ug/ml incubated for 3 hrs by SYTO9 and PI staining based fluorescence assay. Conditions: dose 16 µg/ml. It counts as functional.
The test system of series [19] is Enterococcus faecium. Briefly: Antibiofilm activity against Vancomycin-resistant Enterococcus faecium ATCC 51559 assessed as log reduction in colony forming unit at 32 ug/ml incubated for 12 hrs by SYTO9 and PI staining based fluorescence assay. Conditions: dose 32 µg/ml. In kind it is functional.
Series [20] has as its system Cell membrane. Kind of series: Induction of membrane disruption in Vancomycin-resistant Enterococcus faecium ATCC 51559 at 4 to 16 ug/ml measured after 15 mins by DiSC2(5) dye based multimode plate reader assay. Conditions: dose 4-16 µg/ml. In kind it is functional, subcellular.
The subject of series [21] is Enterococcus faecium. Kind of series: Inhibition of vancomycin-resistance in Enterococcus faecium ATCC 51559 assessed as reduction in vanX expression at 2 ug/ml incubated for 1 hr measured after 7 days in presence of vancomycin by qRT-PCR analysis. In kind it is functional. Conditions: dose 2.0 µg/ml.
Series [22] relates to Cell membrane. Kind of series: Disruption of membrane in Enterococcus faecium ATCC 51559 at 4 to 16 ug/ml measured after 1 hr by SYTO9/PI staining based fluorometric analysis. In kind it is subcellular. Conditions: dose 4-16 µg/ml.
The nature of series [23]: Induction of membrane-permeabilization in Enterococcus faecium ATCC 51559 at 4 ug/ml measured after 1 hr by PI staining based flow cytometry analysis. Conditions: at 4 µg/mL.
The nature of series [24]: Hemolytic activity in human RBC at 50 ug/ml. It counts as toxicity, cell-based, Erythrocyte. Conditions: red blood cells (erythrocytes), at 50 µg/mL, read-out: Activity.
The subject of series [25] is Enterococcus faecium. Kind of series: Development of drug resistance in vancomycin-resistant Enterococcus faecium ATCC 51559 assessed as increase in TN1546 expression measured after 7 days in presence of vancomycin. Conditions: time 7.0 day. In kind it is functional, organism-based.
For series [26], the system named is Enterococcus faecium. Kind of series: Antimicrobial activity against vancomycin-susceptible Enterococcus faecium induced wound in BALB/c mouse assessed as log reduction in colony forming unit at 40 mg/kg administered topically 3 times daily for 3 days. It counts as functional, organism-based. Conditions: route top, time 3.0 day.
Series [27] in a line: Cytotoxicity against mouse LLC cells assessed as reduction in cell viability. Conditions: LLC (3LL) cells. In kind it is toxicity, cell-based.
Series [28] has as its system Enterococcus faecium. Briefly: Induction of reactive oxygen species generation in Enterococcus faecium ATCC 51559 incubated for 1 hr by DCFH-DA based fluorescent microscopy. In kind it is functional, organism-based.
Series [29] has as its system Enterococcus faecium. Kind of series: Inhibition of vancomycin-resistance in Enterococcus faecium ATCC 51559 assessed as reduction in vanR expression at 2 ug/ml measured after 1 hr in presence of vancomycin by qRT-PCR analysis. In kind it is functional. Conditions: dose 2.0 µg/ml.
Series [30] has as its system Enterococcus faecium. Briefly: Inhibition of vancomycin-resistance in Enterococcus faecium ATCC 51559 assessed as increase in vanX expression at 2 ug/ml measured after 1 hr in presence of vancomycin by qRT-PCR analysis. It counts as functional. Conditions: dose 2.0 µg/ml.
The subject of series [31] is Enterococcus faecium. Kind of series: Antimicrobial activity against Vancomycin-resistant Enterococcus faecium ATCC 51559 assessed as growth inhibition after 14 to 16 hrs by CLSI based broth dilution method. In kind it is functional. Conditions: time 14-16 hrs. Background: Broth dilution looks for growth in wells or tubes with falling amounts of substance.
For series [32], the system named is Enterococcus faecium. Briefly: Inhibition of vancomycin-resistance in Enterococcus faecium ATCC 51559 assessed as reduction in vanY expression at 2 ug/ml incubated for 1 hr measured after 7 days in presence of vancomycin by qRT-PCR analysis. In kind it is functional. Conditions: dose 2.0 µg/ml.
The subject of series [33] is Enterococcus faecium. Kind of series: Inhibition of vancomycin-resistance in Enterococcus faecium ATCC 51559 assessed as reduction in vanZ expression at 2 ug/ml incubated for 1 hr measured after 7 days in presence of vancomycin by qRT-PCR analysis. It counts as functional. Conditions: dose 2.0 µg/ml.
Series [34] has as its system Enterococcus faecium. Kind of series: Antibiofilm activity against Vancomycin-resistant Enterococcus faecium ATCC 51559 assessed as log reduction in colony forming unit incubated for 12 hrs by SYTO9 and PI staining based fluorescence assay. It counts as functional, organism-based. Conditions: dose 4-16 µg/ml, DDE = dose-dependent effect.
For series [35], the system named is Enterococcus faecium. Kind of series: Antimicrobial activity against Enterococcus faecium assessed as growth inhibition after 14 to 16 hrs by CLSI based broth dilution method. In kind it is functional. Conditions: time 14-16 hrs.
Series [36] relates to Enterococcus faecium. Kind of series: Induction of membrane-permeabilization in Enterococcus faecium ATCC 51559 at 8 ug/ml measured after 1 hr by PI staining based flow cytometry analysis. Conditions: dose 8.0 µg/ml. In kind it is functional.
For series [37], the system named is Enterococcus faecium. Kind of series: Antibiofilm activity against Vancomycin-resistant Enterococcus faecium ATCC 51559 assessed as log reduction in colony forming unit at 16 ug/ml incubated for 12 hrs by SYTO9 and PI staining based fluorescence assay. In kind it is functional. Conditions: dose 16 µg/ml.
Series [38] has as its system Enterococcus faecium. Kind of series: Development of drug resistance in vancomycin-resistant Enterococcus faecium ATCC 51559 assessed as increase in TN1546 expression measured after 7 days. It counts as functional. Conditions: time 7 day.
Series [39] relates to Enterococcus faecium. Briefly: Resistance development in vancomycin-susceptible Enterococcus faecium assessed as vancomycin MIC99 at 2 ug/ml measured after 110 vancomycin passages. In kind it is functional, organism-based. Conditions: dose 2.0 µg/ml.

The term MIC99 denotes an inhibitory concentration at the 99% level, which refers to growth in some studies and to a panel of isolates in others. A word on the IC50: it is the concentration that inhibits the measured activity by half. On to `CC(C)C(N)C(=O)NCC(=O)O[C@@H]1CC[C@@]2(C)[C@@H](C1)C[C@@H](OC(=O)CNC(=O)C(N)C(C)C)[C@@H]1[C@@H]2C[C@H](OC(=O)CNC(=O)C(N)C(C)C)[C@]2(C)[C@@H]([C@H](C)CCC(=O)NCc3cn(CCCn4cc(CNC(=O)CC[C@@H](C)[C@H]5CC[C@H]6[C@@H]7[C@H](OC(=O)CNC(=O)C(N)C(C)C)C[C@@H]8C[C@H](OC(=O)CNC(=O)C(N)C(C)C)CC[C@]8(C)[C@H]7C[C@H](OC(=O)CNC(=O)C(N)C(C)C)[C@]56C)nn4)nn3)CC[C@@H]12.Cl.Cl.Cl.Cl.Cl.Cl` (stereo not given in full), for which the result in [1], in series [3], in series [4], in [5], in series [6] and in [7] was Active. Further, the outcome in series [9], in series [10], in [11], in series [16], in series [17] and in [20] was Active. The result in series [21], in [22], in [25], in series [26], in [28] and in series [29] was Active. Further, the result in series [30], in [32] and in series [33] was Active. The MIC99 in [2] worked out at 64 µg/mL; in series [8], 16 µg/mL; in series [31], 4 µg/mL; in series [35] it was 16 µg/mL. In addition, the “log(activity)” value in series [12] is recorded as 1; in series [18] it was 3; in series [19], 5; in series [37] it was 3. For the same compound, the Activity was 90% in series [13]; “Tde” in series [14]; “Tde” in series [15]; 90% in series [23]; “Dde” in series [34]; 90% in [36]. For the same compound, the hemolysis at 50 ug/ml in [24] was found to be 5%. In addition, the IC50 in series [27] was 414 µg/mL.
As usually defined, the pIC50 is the negative decadic logarithm of the IC50, by convention in mol/L. With `CN[C@H](CC(C)C)C(=O)N[C@H]1C(=O)N[C@@H](CC(N)=O)C(=O)N[C@H]2C(=O)N[C@H]3C(=O)N[C@H](C(=O)N[C@H](C(=O)O)c4cc(O)cc(O)c4-c4cc3ccc4O)[C@H](O)c3ccc(c(Cl)c3)Oc3cc2cc(c3O[C@@H]2O[C@H](CO)[C@@H](O)[C@H](O)[C@H]2O[C@H]2C[C@](C)(N)[C@H](O)[C@H](C)O2)Oc2ccc(cc2Cl)[C@H]1O` [VANCOMYCIN], the MIC99 in series [2] was 8 µg/mL (≈ 5.52 µM); in series [8], 2 µg/mL (≈ 1.38 µM); in series [31], greater than 128 µg/mL; in series [35] it was 4 µg/mL (≈ 2.76 µM). In addition, in [12], the “log(activity)” value is reported as 2. In addition, the “fold change (FC)” value in series [38] is listed as 3. The pIC50 in series [27] is less than 3.00. The outcome in [39] was Active.
